Assays:
[1] = Partition coefficient (log P butanol/buffer); format: physicochemical; conditions: 1-butanol / 50 mM Tris-HCl, pH 7.4, room temperature
[2] = Excretion study in rats (5 days) and residual gadolinium organ distribution (7 days); format: in vivo, rat; conditions: 0.1 mmol Gd/kg bw i.v.; for Σ organs and carcass [% Dose]: 7 d post injection
Method: The excretion and organ distribution of Example 1 and 15 were determined in male rats (Han-Wistar, n=3). The compound was administered as a sterile aqueous solution (50 mmol Gd/L) as a bolus in the tail vein of the animals. The dose was 0.1 mmol Gd/kg bw. Urine was collected in the following time periods 0-1 h, 1-3 h, 3-6 h, 6-24 h, 1-2d and 2-5d post injection […] and feces 0-1d, 1-2d and 2-5d post injection. As a control, 3 animals were treated in the same way with RC1. On day 7 the animals were sacrificed, and the following organs were excised: blood, liver, kidney, spleen, heart, lung, brain, muscle, skin, stomach, gut, bone and bone marrow. The remaining carcass was freeze dried and ground to a fine powder. The Gd concentration in the organs and the carcass was determined by ICP-MS (ICP-MS Agilent 7500a, Waldbronn, Germany). The compounds are excreted via dual pathway (liver and kidney). Less than 1% of the administered dose was present in the body 7 days after the injection.

[3] = test system: plasma proteins; assay: Plasma protein binding, equilibrium dialysis, monkey; format: in vitro ADME
Text: (§1) The binding of Example 1 and 15 to plasma proteins of different species (human, dog, monkey, rabbit, mouse and rat) was investigated in vitro by using equilibrium dialysis in reusable 96-well Micro-Equilibrium Dialysis Devices (ht dialysis) (Banker M J et al. J Pharm Sci. 2003 May; 92 (5): 967-74).

[4] = target: T1, OATP1B1 (Homo sapiens, UniProt Q9Y6L6); assay: Uptake into stable transfected OATP1B1 HEK 293 cells; format: cell-based; conditions: for Uptake into OATP1B1-HEK 293 cells: 40 min incubation, relative to RC1 (Gd-EOB-DTPA); for Inhibition Rifampicine: uptake into OATP1B1-HEK 293 cells
T1 sequence (Q9Y6L6 1-691): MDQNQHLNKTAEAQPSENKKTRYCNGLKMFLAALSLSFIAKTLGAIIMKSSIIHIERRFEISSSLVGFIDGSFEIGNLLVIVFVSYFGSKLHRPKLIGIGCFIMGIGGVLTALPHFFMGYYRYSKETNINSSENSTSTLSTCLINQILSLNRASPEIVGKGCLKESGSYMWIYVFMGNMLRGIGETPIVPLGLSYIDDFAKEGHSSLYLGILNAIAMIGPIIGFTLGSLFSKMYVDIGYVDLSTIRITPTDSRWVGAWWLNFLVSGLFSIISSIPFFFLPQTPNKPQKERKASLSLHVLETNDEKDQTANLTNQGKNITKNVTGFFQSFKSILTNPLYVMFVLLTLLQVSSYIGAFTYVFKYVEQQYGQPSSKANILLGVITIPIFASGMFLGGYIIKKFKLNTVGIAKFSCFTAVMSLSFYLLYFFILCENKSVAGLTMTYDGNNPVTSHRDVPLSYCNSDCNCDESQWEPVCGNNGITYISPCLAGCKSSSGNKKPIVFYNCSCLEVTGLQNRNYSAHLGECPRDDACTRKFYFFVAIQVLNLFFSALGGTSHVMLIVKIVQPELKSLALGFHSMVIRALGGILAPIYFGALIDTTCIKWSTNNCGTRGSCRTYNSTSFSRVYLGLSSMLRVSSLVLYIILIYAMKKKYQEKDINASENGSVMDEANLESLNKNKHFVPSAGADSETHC
In short: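 Stably transfected OATP1B1 HEK293 cells incubated 40 min without shaking with test item at 100 µM final in transport buffer, in triplicate. Cells then washed with cold PBS; gadoxetate run on the same plate as reference.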

[5] = Complex stability (transmetallation) against Zn2+ in phosphate buffer; conditions: 72 hours, 2.5 mM Zn^2+, 26 mM phosphate buffer, 37° C., pH 7.4
Text: If test compounds are instable under these conditions, transmetallation during this test would lead to the formation of the Zn^2+ complex of the test item, while Gd^3+ is released and precipitated as highly insoluble GdPO4.

[6] = test system: plasma proteins; assay: Plasma protein binding, equilibrium dialysis, dog; format: in vitro ADME
Text: as §1

[7] = In vivo pharmacokinetics following i.v. administration in rat
Method: Pharmacokinetic parameters of Example 1 and 15 and were determined in male and female rats (Han-Wistar, n=4). […] The samples were digested using strong acidic and oxidizing conditions at elevated temperature following dilution in 1% nitric acid to bring the samples in the quantification range of the method. The lower limit of quantitation amounts to 1 nmol/L for all elements and the upper limit to 1000 nmol/L in the diluted sample.
The fit of the obtained data to a three-compartment model (Phoenix, WinNonlin 6.4, 3-compartment mode) yielded the pharmacokinetic parameters which are shown in Table 8.

[8] = Relaxivity measurements at 1.41 T in human plasma; format: physicochemical; conditions: 37° C., normalized to Gd
In short: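 T1 determined by inversion recovery (8 inversion-time steps) and T2 by CPMG sequence, both with relaxation delay ≥5×T1. Each relaxivity used three Gd concentrations between 0.05 and 2 mM. Relaxivities were derived from relaxation rates measured in water and plasma.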

Row | Structure (SMILES) | Log P (partition coefficient butanol/buffer) [1] | Total recovery [% Dose] [2] | Excretion in urine [% Dose] ([2]; 0-1 h post injection) | Excretion in feces [% Dose] ([2]; 0-1 d post injection) | Excretion in urine [% Dose] ([2]; 1-3 h post injection) | Excretion in feces [% Dose] ([2]; 1-2 d post injection) | Excretion in urine [% Dose] ([2]; 1-2 d post injection) | Excretion in feces [% Dose] ([2]; 2-5 d post injection) | Excretion in urine [% Dose] ([2]; 2-5 d post injection) | Excretion in urine [% Dose] ([2]; 3-6 h post injection) | Excretion in urine [% Dose] ([2]; 6-24 h post injection) | Σ organs and carcass [% Dose] [2] | Fraction unbound fu [3] | Uptake into OATP1B1-HEK 293 cells [4] | Inhibition Rifampicine [4] | Transmetallation stability [5] | Fraction unbound fu [6] | Clplasma Plasma clearance ([7]; dose 25 μmol/kg bw) | Vss Volume of distribution at steady state ([7]; dose 25 μmol/kg bw) | r1 human plasma [8] | further results
1 | CCOc1ccc(CCOCC(C(=O)O)N2CCN(CC(=O)[O-])CCN(CC(=O)[O-])CCN(CC(=O)[O-])CC2)cc1.[Gd+3] (stereo not drawn) [Example 1, gadolinium 2,2′,2″-(10-{1-carboxy-2-[2-(4-ethoxyphenyl)ethoxy]ethyl}-1,4,7,10-tetraazacyclododecane-1,4,7-triyl)triacetate] | −0.98 | 98.6 ± 2.1% | 39.8 ± 6.8% | 55.6 ± 5.6% | 40.3 ± 6.8% | 56.9 ± 6.6% | 40.9 ± 7.4% | 57.0 ± 6.6% | 40.9 ± 7.4% | 40.3 ± 6.8% | 40.8 ± 7.4% | 0.65 ± 0.07% | 94% | 187 % of RC1 | 92 % inhibition | 99% | 96% | 26.7 mL/min/kg | 0.4 L/kg | 6.5 L/mmol/s | AUC∞ Area under the curve ([7]; dose 25 μmol/kg bw): 16 µM·h; t½ α Half-life, compartment V1 ([7]; dose 25 μmol/kg bw): 1.8 min; t½ β Half-life, compartment V2 ([7]; dose 25 μmol/kg bw): 13 min; t½ γ Half-life, compartment V3 ([7]; dose 25 μmol/kg bw): 114 min; AUC∞ Area under the curve ([7]; dose 250 μmol/kg bw): 315 µM·h; Clplasma Plasma clearance ([7]; dose 250 μmol/kg bw): 13 mL/min/kg; Vss Volume of distribution at steady state ([7]; dose 250 μmol/kg bw): 0.2 L/kg; t½ α Half-life, compartment V1 ([7]; dose 250 μmol/kg bw): 3 min; t½ β Half-life, compartment V2 ([7]; dose 250 μmol/kg bw): 11 min; t½ γ Half-life, compartment V3 ([7]; dose 250 μmol/kg bw): 396 min
2 | CCOCCOCCOc1ccc(CC(C(=O)O)N2CCN(CC(=O)[O-])CCN(CC(=O)[O-])CCN(CC(=O)[O-])CC2)cc1.[Gd+3] (stereo not drawn) [Example 2, gadolinium 2,2′,2″-{10-[1-carboxy-2-{4-[2-(2-ethoxyethoxy)ethoxy]phenyl}ethyl]-1,4,7,10-tetraazacyclododecane-1,4,7-triyl}triacetate] | −1.63 |  |  |  |  |  |  |  |  |  |  |  | >95% | 324 % of RC1 | 45 % inhibition | 100% | >95% |  |  | 6.2 L/mmol/s | 
3 | CCOCCOCCOc1ccc(CCC[C@@H](C(=O)O)N2CCN([C@@H](CO)C(=O)[O-])CCN([C@@H](CO)C(=O)[O-])CCN([C@@H](CO)C(=O)[O-])CC2)cc1.[Gd+3] [Example 15, gadolinium (2S,2′S,2″S)-2,2′,2″-{10-[(1S)-1-carboxy-4-{4-[2-(2-ethoxyethoxy)ethoxy]phenyl}butyl]-1,4,7,10-tetraazacyclododecane-1,4,7-triyl}tris(3-hydroxypropanoate)] | −1.00 | 97.9 ± 5.4% | 12.6 ± 11.1% | 78.6 ± 6.2% | 17.3 ± 3.4% | 80.0 ± 5.3% | 17.7 ± 3.3% | 80.0 ± 5.3% | 17.7 ± 3.3% | 17.4 ± 3.3% | 17.6 ± 3.3% | 0.11 ± 0.03% | 88% |  | 91 % inhibition | 101% | 91% | 45 mL/min/kg | 0.4 L/kg | 8.7 L/mmol/s | AUCnorm Area under the curve ([7]; dose 25 μmol/kg bw): 0.38 kg·h/L; t½ α Half-life, compartment V1 ([7]; dose 25 μmol/kg bw): 3 min; t½ β Half-life, compartment V2 ([7]; dose 25 μmol/kg bw): 12 min; t½ γ Half-life, compartment V3 ([7]; dose 25 μmol/kg bw): 588 min
4 | CCOc1ccc(CC(CN(CCN(CC(=O)[O-])CC(=O)[O-])CC(=O)[O-])N(CC(=O)[O-])CC(=O)[O-])cc1.[Gd+3].[Na+].[Na+] (stereo not drawn) [RC1, gadoxetate disodium, reference compound] | −2.12 | 104.6 ± 2.4% | 23.2 ± 1.6% | 77.5 ± 2.7% | 23.5 ± 1.5% | 80.6 ± 2.9% | 23.7 ± 1.5% | 80.8 ± 2.9% | 23.7 ± 1.5% | 23.6 ± 1.5% | 23.7 ± 1.5% | 0.14 ± 0.08% |  | 100 % of RC1 | 81 % inhibition | 44% |  |  |  |  | AUCnorm Area under the curve ([7]; dose 100 μmol/kg bw): 0.40 kg·h/L; Clplasma Plasma clearance ([7]; dose 100 μmol/kg bw): 40 mL/min/kg; Vss Volume of distribution at steady state ([7]; dose 100 μmol/kg bw): 0.9 L/kg; t½ α Half-life, compartment V1 ([7]; dose 100 μmol/kg bw): 2 min; t½ β Half-life, compartment V2 ([7]; dose 100 μmol/kg bw): 8 min; t½ γ Half-life, compartment V3 ([7]; dose 100 μmol/kg bw): 390 min

From patent US20260083864A1, “CONTRAST AGENTS FOR USE IN DIAGNOSTIC COMPUTED TOMOGRAPHY IMAGING” (Bayer Aktiengesellschaft, priority 2022, published 2026)
